Values quoted from earlier work as cited in US20100160306A1, “Acylated Piperidine Derivatives as Melanocortin-4 Receptor Agonists” (priority 2005, published 2010).

Details: injected intramuscularly or subcutaneously, males with psychogenic erectile dysfunction

Ac-Nle-c[Asp-His-DPhe-Arg-Trp-Lys]-NH2 [MT-II]
response rate: 75%
